Results: article PMC11345830, “Exploration of Hydrazide-Based HDAC8 PROTACs for the Treatment of Hematological Malignancies and Solid Tumors” (Journal of Medicinal Chemistry, 2024)
Read-outs that look alike come from different tables or passages of the source. Blank lines part the entries; values can stand above or below the compound they belong to.

Legend:
HDAC8 [1] = molecular target: T1, HDAC8 (Homo sapiens, UniProt Q9BY41); test: HDAC8 degradation in Jurkat cells, Western blot; conditions: for inhibition at 0.1 µM / Dmax: Jurkat; for inhibition at 0.1 µM: read-out: Degradation (%) at 100 nM (HDAC8); for Dmax: read-out: Dmax (HDAC8 degradation); for DC50: read-out: DC50 (HDAC8 degradation)
T1 sequence (Q9BY41 1-377): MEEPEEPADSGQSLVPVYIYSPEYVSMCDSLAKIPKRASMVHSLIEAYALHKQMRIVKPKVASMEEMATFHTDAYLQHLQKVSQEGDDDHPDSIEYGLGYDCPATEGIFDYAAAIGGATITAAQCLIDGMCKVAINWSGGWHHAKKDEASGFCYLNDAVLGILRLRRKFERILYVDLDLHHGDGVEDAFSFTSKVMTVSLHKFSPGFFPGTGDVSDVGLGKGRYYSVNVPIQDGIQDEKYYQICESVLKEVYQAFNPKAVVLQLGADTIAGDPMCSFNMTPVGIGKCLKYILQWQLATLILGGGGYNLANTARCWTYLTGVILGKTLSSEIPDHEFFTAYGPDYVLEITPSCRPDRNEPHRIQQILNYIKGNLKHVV

HCT116 cells = test: Cell viability MTS assay, HCT116; assay type: cell-based; conditions: Homo sapiens, HCT-116, 72 h, read-out: IC50 antiproliferative, HCT116
Procedure: (§1) MTS assay was used to measure the cell viability. For single treatment, Jurkat, THP-1 and HEL (8000 cells/well), HCT116 and A549 (2000 cells/well) were seeded in 96-well plates in 100 μL complete medium. After overnight incubation, 50 μL of media containing various concentrations of compounds or the vehicle were added to each well. For cotreatment, cells were seeded in 96-well plates in 50 μL complete medium. After overnight incubation, 50 μL of Z-VAD-FMK, Nec-1, Fer-1, CQ, and other indicated compounds were added to each well. One hour later, 50 μL of media containing various concentrations of compounds were added to each well. After 72 h of treatment, 20 μL of CellTiter 96 AQueous One Solution reagent (Promega, Madison, USA) was added to each well according to manufacturer’s protocol. Plates were incubated at 37 °C for 1–2 h. The absorbance was determined at a wavelength of 490 nm using a Synergy H1 plate reader (Biotek, Winooski, VT, USA).

HDAC8 [2] = molecular target: T1, HDAC8; test: In vitro HDAC8 deacetylase inhibition assay
Procedure: After a following incubation at 37 °C for 20 min, the fluorescence was measured on a Synergy H1 Platereader (BioTek, USA) with an excitation wavelength of 370 nm and an emission wavelength of 460 nm. Nonlinear regression was used for the determination of the IC50 of each compound.

A549 cells = test: Cell viability MTS assay, A549; assay type: cell-based; conditions: Homo sapiens, 72 h, read-out: IC50 antiproliferative, A549
Procedure: as §1

THP-1 cells = test: Cell viability MTS assay, THP-1; assay type: cell-based; conditions: Homo sapiens, 72 h, read-out: IC50 antiproliferative, THP-1
Procedure: as §1

Jurkat cells = test: Cell viability MTS assay, Jurkat; assay type: cell-based; conditions: for IC50: Homo sapiens, Jurkat, 72 h, MTS assay, read-out: IC50 antiproliferative, Jurkat
Procedure: as §1

HDAC8 [3] = molecular target: T1, HDAC8; parameters: endogenous in cells; host or cells: HCT116; method as in PMID 35759908; conditions: HCT116 cells; cited from earlier work

inhibition at 0.1 µM (HDAC8 [1]; 6 h): 43 ± 3%
SMILES: CCCCCCNNC(=O)c1ccc(CNC(=O)CCCCCCCCCNc2cccc3c2C(=O)N(C2CCC(=O)NC2=O)C3=O)cc1 (stereo not drawn) [Z6, 10-((2-(2,6-Dioxopiperidin-3-yl)-1,3-dioxoisoindolin-4-yl)amino)-N-(4-(2-hexylhydrazine-1-carbonyl)benzyl)decanamide]

inhibition at 0.1 µM (HDAC8 [1]; 6 h): 62 ± 2%
SMILES: CCCCCCNNC(=O)c1ccc(CNC(=O)CCCCNc2cccc3c2C(=O)N(C2CCC(=O)NC2=O)C3=O)cc1 (stereo not drawn) [Z2, 5-((2-(2,6-Dioxopiperidin-3-yl)-1,3-dioxoisoindolin-4-yl)amino)-N-(4-(2-hexylhydrazine-1-carbonyl)benzyl)pentanamide]

inhibition at 0.1 µM (HDAC8 [1]; 6 h): 25 ± 2%
SMILES: CCCCCCNNC(=O)c1ccc(CNCC2CCN(c3ccc4c(c3)C(=O)N(C3CCC(=O)NC3=O)C4=O)CC2)cc1 (stereo not drawn) [Z15, 4-((((1-(2-(2,6-Dioxopiperidin-3-yl)-1,3-dioxoisoindolin-5-yl)piperidin-4-yl)methyl)amino)methyl)-N′-hexylbenzohydrazide]

inhibition at 0.1 µM (HDAC8 [1]; 6 h): 73 ± 1%
SMILES: CCCCCCNNC(=O)c1ccc(CNC(=O)CCCNc2cccc3c2C(=O)N(C2CCC(=O)NC2=O)C3=O)cc1 (stereo not drawn) [Z1, 4-((2-(2,6-Dioxopiperidin-3-yl)-1,3-dioxoisoindolin-4-yl)amino)-N-(4-(2-hexylhydrazine-1-carbonyl)benzyl)butanamide]

inhibition at 0.1 µM (HDAC8 [1]; 6 h): 44 ± 13%
SMILES: CCCCCCNNC(=O)c1ccc(CNC(=O)CCCCCNc2cccc3c2C(=O)N(C2CCC(=O)NC2=O)C3=O)cc1 (stereo not drawn) [Z3, 6-((2-(2,6-Dioxopiperidin-3-yl)-1,3-dioxoisoindolin-4-yl)amino)-N-(4-(2-hexylhydrazine-1-carbonyl)benzyl)hexanamide]

inhibition at 0.1 µM (HDAC8 [1]; 6 h): 34 ± 3%
SMILES: CCCCCCNNC(=O)c1ccc(CNC(=O)C2CCN(c3ccc4c(c3)C(=O)N(C3CCC(=O)NC3=O)C4=O)CC2)cc1 (stereo not drawn) [Z14, 1-(2-(2,6-Dioxopiperidin-3-yl)-1,3-dioxoisoindolin-5-yl)-N-(4-(2-hexylhydrazine-1-carbonyl)benzyl)piperidine-4-carboxamide]

inhibition at 0.1 µM (HDAC8 [1]; 6 h): 17 ± 8%
SMILES: CCCCCCNNC(=O)c1ccc(CNC(=O)CCCCC(=O)N[C@H](C(=O)N2C[C@H](O)C[C@H]2C(=O)NCc2ccc(-c3scnc3C)cc2)C(C)(C)C)cc1 [Z9, N^1-(4-(2-Hexylhydrazine-1-carbonyl)benzyl)-N^6-((S)-1-((2S,4R)-4-hydroxy-2-((4-(4-methylthiazol-5-yl)benzyl)carbamoyl)pyrrolidin-1-yl)-3,3-dimethyl-1-oxobutan-2-yl)adipamide]

inhibition at 0.1 µM (HDAC8 [1]; 6 h): 65 ± 5%
SMILES: CCCCCCNNC(=O)c1ccc(CNC(=O)CCCCCCCCCCC(=O)N[C@H](C(=O)N2C[C@H](O)C[C@H]2C(=O)NCc2ccc(-c3scnc3C)cc2)C(C)(C)C)cc1 [Z13, N^1-(4-(2-Hexylhydrazine-1-carbonyl)benzyl)-N^12-((S)-1-((2S,4R)-4-hydroxy-2-((4-(4-methylthiazol-5-yl)benzyl)carbamoyl)pyrrolidin-1-yl)-3,3-dimethyl-1-oxobutan-2-yl)dodecanediamide]

IC50 (HCT116 cells): 2.8 ± 0.3 µM | IC50 (HDAC8 [2]): 16.6 ± 2.8 µM | IC50 (A549 cells): 12 ± 1.6 µM | IC50 (THP-1 cells): 3.4 ± 0.6 µM | IC50 (Jurkat cells): 3 ± 0.3 µM
SMILES: CCCCCCNNC(=O)c1ccc(CNC(=O)CN2CCC(c3ccc(NC(C)=O)cc3)CC2)cc1 [Compound 32, 2-(4-(4-Acetamidophenyl)piperidin-1-yl)-N-(4-(2-hexylhydrazine-1-carbonyl)benzyl)acetamide]
HDAC8 degradation by control compounds (in words) (HDAC8 [1]; Jurkat cells, 6 h): Neither NC-Z16 nor 32 induced HDAC8 degradation

inhibition at 0.1 µM (HDAC8 [1]; 6 h): 90 ± 10% | Dmax (HDAC8 [1]): 88% | DC50 (HDAC8 [1]; Jurkat cells, 6 h): 0.0167 µM
SMILES: CCCCCCNNC(=O)c1ccc(CNC(=O)CCCCCCNc2cccc3c2C(=O)N(C2CCC(=O)NC2=O)C3=O)cc1 (stereo not drawn) [Z4, 7-((2-(2,6-Dioxopiperidin-3-yl)-1,3-dioxoisoindolin-4-yl)amino)-N-(4-(2-hexylhydrazine-1-carbonyl)benzyl)heptanamide]

inhibition at 0.1 µM (HDAC8 [1]; 6 h): 43 ± 17%
SMILES: CCCCCCNNC(=O)c1ccc(CNC(=O)CCCCCCCNc2cccc3c2C(=O)N(C2CCC(=O)NC2=O)C3=O)cc1 (stereo not drawn) [Z5, 8-((2-(2,6-Dioxopiperidin-3-yl)-1,3-dioxoisoindolin-4-yl)amino)-N-(4-(2-Hexylhydrazine-1-carbonyl)benzyl)octanamide]

inhibition at 0.1 µM (HDAC8 [1]; 6 h): 48 ± 4%
SMILES: CCCCCCNNC(=O)c1ccc(CNC(=O)CCCCCCCC(=O)N[C@H](C(=O)N2C[C@H](O)C[C@H]2C(=O)NCc2ccc(-c3scnc3C)cc2)C(C)(C)C)cc1 [Z11, N^1-(4-(2-Hexylhydrazine-1-carbonyl)benzyl)-N^9-((S)-1-((2S,4R)-4-hydroxy-2-((4-(4-methylthiazol-5-yl)benzyl)carbamoyl)pyrrolidin-1-yl)-3,3-dimethyl-1-oxobutan-2-yl)nonanediamide]

Degradation (%) at 100 nM (HDAC8) (HDAC8 [1]; Jurkat cells, 100 nM, 6 h, Western blot, n.d = no degradation): did not trigger visible degradation
SMILES: CCCCCCNNC(=O)c1ccc(CNC(=O)CCCCCCCCCCCNc2cccc3c2C(=O)N(C2CCC(=O)NC2=O)C3=O)cc1 (stereo not drawn) [Z7, 12-((2-(2,6-Dioxopiperidin-3-yl)-1,3-dioxoisoindolin-4-yl)amino)-N-(4-(2-Hexylhydrazine-1-carbonyl)benzyl)dodecanamide]

IC50 (HCT116 cells): > 33.3 µM | IC50 (A549 cells): > 33.3 µM | IC50 (THP-1 cells): > 33.3 µM | IC50 (Jurkat cells): > 33.3 µM
SMILES: Nc1cccc2c1C(=O)N(C1CCC(=O)NC1=O)C2=O (stereo not drawn) [Poma, pomalidomide]

inhibition at 0.1 µM (HDAC8 [1]; 6 h): 83 ± 2% | Dmax (HDAC8 [1]): 93% | DC50 (HDAC8 [1]; Jurkat cells, 6 h): 0.0621 µM
SMILES: CCCCCCNNC(=O)c1ccc(CNC(=O)CCCCCCCCC(=O)N[C@H](C(=O)N2C[C@H](O)C[C@H]2C(=O)NCc2ccc(-c3scnc3C)cc2)C(C)(C)C)cc1 [Z12, N^1-(4-(2-Hexylhydrazine-1-carbonyl)benzyl)-N^10-((S)-1-((2S,4R)-4-hydroxy-2-((4-(4-methylthiazol-5-yl)benzyl)carbamoyl)pyrrolidin-1-yl)-3,3-dimethyl-1-oxobutan-2-yl)decanediamide]

inhibition at 0.1 µM (HDAC8 [1]; 6 h): 20 ± 1%
SMILES: CCCCCCNNC(=O)c1ccc(CNC(=O)CCC(=O)N[C@H](C(=O)N2C[C@H](O)C[C@H]2C(=O)NCc2ccc(-c3scnc3C)cc2)C(C)(C)C)cc1 [Z8, N^1-(4-(2-Hexylhydrazine-1-carbonyl)benzyl)-N^4-((S)-1-((2S,4R)-4-hydroxy-2-((4-(4-methylthiazol-5-yl)benzyl)carbamoyl)pyrrolidin-1-yl)-3,3-dimethyl-1-oxobutan-2-yl)succinimide]

SMILES: COc1ccc(Cn2ccc3ccc(C(=O)NO)cc32)cc1 [PCI-34051]
IC50 (HCT116 cells): 21.9 ± 2.8 µM | IC50 (A549 cells): > 33.3 µM | IC50 (THP-1 cells): > 33.3 µM | IC50 (Jurkat cells): 4.5 ± 0.7 µM | decreased antiproliferative potency after Z16 pretreatment compared to single treatment (Jurkat cells; Jurkat pretreated with 50 nM Z16 for 2 h, then 72 h, MTS): about 5 fold

inhibition at 0.1 µM (HDAC8 [1]; 6 h): 14 ± 5%
SMILES: CCCCCCNNC(=O)c1ccc(CNC(=O)CCCCCCC(=O)N[C@H](C(=O)N2C[C@H](O)C[C@H]2C(=O)NCc2ccc(-c3scnc3C)cc2)C(C)(C)C)cc1 [Z10, N^1-(4-(2-Hexylhydrazine-1-carbonyl)benzyl)-N^8-((S)-1-((2S,4R)-4-hydroxy-2-((4-(4-methylthiazol-5-yl)benzyl)carbamoyl)pyrrolidin-1-yl)-3,3-dimethyl-1-oxobutan-2-yl)octanediamide]

inhibition at 0.1 µM (HDAC8 [1]; 6 h): 13 ± 4%
SMILES: CCCCCCNNC(=O)c1cccc(NCc2ccc(C(=O)N3CCC(c4ccc(NC5CCC(=O)NC5=O)cc4)CC3)cc2)c1 (stereo not drawn) [Z18, 3-((4-(4-(4-((2,6-Dioxopiperidin-3-yl)amino)phenyl)piperidine-1-carbonyl)benzyl)amino)-N′-hexylbenzohydrazide]

SMILES: O=C(CCCCOc1cccc(CCNC(=O)c2cccc(C(=O)NO)c2)c1)NCCCCCCNc1cccc2c1C(=O)N(C1CCC(=O)NC1=O)C2=O (stereo not drawn) [PROTAC 2]
DC50 (HDAC8 [3]): 0.147 µM
